# Test results as given in US20250115595A1, “INHIBITORS OF HYPOXIA-INDUCIBLE FACTORS” (The Johns Hopkins University, priority 2021, published 2025).
# Columns and labels:
# [1] = system: Hepa1-6 mouse HCC cells; experiment: RT-qPCR of hypoxia-induced mRNAs in Hepa1-6 cells; type: cell-based
# Procedure: Effects of 32-134D on Hepa1-6 mouse HCC cells and tumors. […] Thus, 32-134D inhibits the ability of hypoxic HCC cells to increase O2 delivery by stimulating angiogenesis (Angpt14, Pgf, Vegfa) or […] anaerobic metabolism by increasing glycolytic flux (Glut1, Pgk1, Ldha).
# Human Hep3B and mouse Hepa1-6 cells were purchased from ATCC and grown in high-glucose (4.5 mg/ml) Dulbecco's modified Eagle's medium supplemented with 10% (vol/vol) fetal bovine serum and […] at 37° C. in a 5% CO2/95% air incubator (20% O2). Human cell line identity was authenticated by analysis of short tandem repeats, and all cell lines were maintained mycoplasma free, using PCR-based assays conducted at the Johns Hopkins University Genetic Resources Core Facility. Cells were subjected to hypoxia in a controlled atmosphere chamber (PLAS Labs) with ambient gas mixture containing 1% O2 and 5% CO2.
# RNA was extracted using TRIzol Reagent (ThermoFisher). Quantitative Real-time PCR was conducted using SYBR Green PCR Master Mix (BioRad) and reactions were run using the BioRad thermal cycler (BioRad). The mRNA expression of target genes was normalized to the expression of 18S rRNA and the fold change (FC) was calculated based on the threshold cycle (Ct) as […]
# [2] = system: C57BL/6 mice; experiment: Laser CNV model, intraperitoneal dosing; type: in vivo, mouse
# Procedure: The laser CNV model for neovascular (wet) age-related macular degeneration was used to assess the efficacy of 32-134D in blocking HIF-regulated gene expression in the eye (FIG. 20A). C57BL/6 mice were treated with laser on day 0. Beginning on day 2, mice were treated with 5 daily intraperitoneal (IP) injections (day 2 to day 6) with 32-134D at 40 mg/kg or with vehicle control. On day 7, choroidal flat mounts were prepared and stained with isolectin-B4 to examine the CNV lesions. The expression of Vegf (FIG. 20B) and Angpt14 (FIG. 20C) mRNA was also measured at day 7 following laser treatment.
# C57BL/6 mice were treated with laser on day 0. Beginning on day 2, mice were treated with 5 daily IP injections (day 2 to day 6) with 32-134D at 40 mg/kg or with vehicle control. On day 7, mice were euthanized and choroidal flat mounts were stained with isolectin-B4 to examine the area of CNV lesions.
# [3] = target: T1, HIF-1α (Homo sapiens, UniProt Q16665); experiment: Immunoblot of HIF-1α accumulation in hypoxic MIO-M1 cells; type: cell-based
# T1 construct: endogenous in cells; host or cells: MIO-M1 (immortalized human Müller glial cell line), hypoxia
# T1 sequence (Q16665 whole entry): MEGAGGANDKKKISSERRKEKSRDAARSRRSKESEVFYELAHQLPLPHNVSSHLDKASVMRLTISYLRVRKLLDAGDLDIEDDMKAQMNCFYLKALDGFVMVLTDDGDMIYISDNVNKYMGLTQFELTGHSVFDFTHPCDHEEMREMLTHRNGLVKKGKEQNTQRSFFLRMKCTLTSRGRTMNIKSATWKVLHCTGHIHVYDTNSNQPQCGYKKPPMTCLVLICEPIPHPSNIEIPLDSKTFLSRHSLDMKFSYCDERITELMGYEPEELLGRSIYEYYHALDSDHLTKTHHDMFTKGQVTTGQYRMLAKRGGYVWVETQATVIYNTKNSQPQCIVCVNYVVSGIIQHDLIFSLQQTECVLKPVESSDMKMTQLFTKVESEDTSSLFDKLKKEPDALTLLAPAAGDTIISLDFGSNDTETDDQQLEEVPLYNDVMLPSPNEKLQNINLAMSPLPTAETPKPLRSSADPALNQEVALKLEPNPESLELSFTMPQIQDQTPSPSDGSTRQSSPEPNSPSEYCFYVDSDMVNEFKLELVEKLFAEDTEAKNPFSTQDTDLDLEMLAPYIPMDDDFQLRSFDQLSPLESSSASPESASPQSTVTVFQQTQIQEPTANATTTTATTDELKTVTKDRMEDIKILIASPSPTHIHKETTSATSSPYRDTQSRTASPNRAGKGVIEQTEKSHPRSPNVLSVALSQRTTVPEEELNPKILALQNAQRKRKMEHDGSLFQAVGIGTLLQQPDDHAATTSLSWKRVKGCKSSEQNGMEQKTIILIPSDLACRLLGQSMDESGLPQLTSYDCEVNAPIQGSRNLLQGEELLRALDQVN
# Procedure: (§1) It has previously been reported that the cells in the inner nuclear layer of the retina that express VEGF in response to hypoxia/ischemia are Müller glial cells (X. Xin et al., Proc Natl Acad Sci USA 110, E3425-3434 (2013)). […] The effects of 32-134D on HIF-1α accumulation persisted up to 16 hours after treatment of cultured cells (FIG. 27B).
# Pharmacokinetic analysis of 32-134D in the neurosensory retina following intraocular administration was determined by liquid chromatography and tandem mass spectrometry (LC-MS/MS) to quantify the concentration of 32-134D in retinal tissue over 14 days following a single 70-ng intraocular injection of 32-134D (see Methods of all parameters). […] The total exposure (area under the curve or AUClast) was 72.3 nmol*day/g.
# (§2) Cells culture and reagents: MIO-M1 cells were a gift from Dr. Astrid Limb (University College London, Institute of Ophthalmology, London, United Kingdom). MIO-M1 and HUVEC cells were cultured in DMEM with 10% (vol/vol) FBS (Quality Biological) and 1% penicillin/streptomycin (Cellgro). Hypoxia chambers were used to expose cells. Evans Blue (E2129) was purchased from Sigma-Aldrich.
# Immunoblot assays and ELISAs: Cell, neurosensory retina, and D120 retinal organoid lysates were subjected to 4-15% gradient SDS/PAGE (Invitrogen). […]
# [4] = system: HIF-1α and HIF-2α; experiment: Immunoblot of HIF-1α and HIF-2α accumulation in hypoxic MIO-M1 cells; type: cell-based, human; conditions: as little as 1 μM, 4 hours
# Procedure: as §1, §2
# Immunoblot assays and ELISAs: Cell, neurosensory retina, and D120 retinal organoid lysates were subjected to 4-15% gradient SDS/PAGE (Invitrogen). Immunoblot assays were performed as previously described (X. Xin et al., 2013, Proc Natl Acad Sci USA 110, E3425-3434).
smiles,measurement,setting,value
"Brc1ccc2c(-c3csc(-c4c[nH]c5c(Br)cccc45)n3)c[nH]c2c1 [Compound 32-134D, 4-(6-bromo-1H-indol-3-yl)-2-(7-bromo-1H-indol-3-yl)thiazole]",hypoxia induction of B7h4 and Tim3 mRNAs,"[1]; Hepa1-6 cells, 5 μM",hypoxia-induced in vehicle but not in 32-134D-treated cells
same,hypoxia induction of Pdl1 mRNA,"[1]; Hepa1-6 cells, 5 μM",hypoxia-induced in vehicle-treated but not in 32-134D-treated cells
same,hypoxia-induced expression of Glut1 and Ldha,"[1]; Hepa1-6 cells, 5 μM",blocked
same,"decreased Cxcl1, Il6 and Il10 mRNA levels",[1]; cultured Hepa1-6 cells,not in cultured Hepa1-6 cells exposed to 32-134D
same,hypoxia-induced IL22 mRNA expression,[1]; cultured Hepa1-6 cells,inhibited
same,"hypoxia-induced expression of mRNA encoding Angpt14, Pgf, Vegfa and Pgk1",[1]; hypoxic Hepa1-6 cells,significant dose-dependent inhibition
same,Vegf mRNA in eyes,"[2]; 40 mg/kg IP, day 7 after laser",significantly decreased
same,CNV lesions,"[2]; 5 daily IP injections 40 mg/kg, day 7",marked decrease in CNV
same,Angpt14 mRNA expression in eyes,"[2]; 20 or 40 mg/kg IP, day 7 after laser",significantly decreased
same,persistence of effect on HIF-1α accumulation after treatment,[3]; 10 μM,up to 16 hours
same,IC50,"[3]; hypoxia 4 hours, quantitation of immunoblots, read-out: IC50 of HIF-1α protein accumulation",3.5 µM
same,HIF-1α and HIF-2α protein accumulation in response to hypoxia,[4],decreased
